Experimental data reported in the supplement of paper PMC10307832.

Experiments:
Experiment in all cases: relative viability (nuclei count vs DMSO), 5 days (fraction); higher = more cells survive
GSK126 + Vorinostat = compound: CC[C@H](C)N1C=C(C2=C(C=C(C=C21)C3=CN=C(C=C3)N4CCNCC4)C(=O)NCC5=C(C=C(NC5=O)C)C)C [GSK126] + O=C(CCCCCCC(=O)Nc1ccccc1)NO [Vorinostat] (partner 1 µM)
Summary of the method: (§1)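 Lung cancer cell lines, seeded in 1536-well plates, were treated the following day by pin tool with a single drug or with five library-drug doses (not always all listed) in √10 steps on top of a fixed anchor-drug dose. Cells were fixed and nuclei stained in one step after 5 days, and nuclei were counted. Relative viability is the nuclei count for treated wells divided by that for vehicle wells, reported as medians of duplicate plates.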

Carboplatin + Luminespib = compound: C1CC(C1)(C(=O)O)C(=O)O.[NH2-].[NH2-].[Pt+2] [Carboplatin] + CCNC(=O)c1noc(-c2cc(C(C)C)c(O)cc2O)c1-c1ccc(CN2CCOCC2)cc1 [Luminespib] (partner 0.01 µM)
Summary of the method: as §1

MLN4924 + Vorinostat = compound: NS(=O)(=O)OC[C@@H]1C[C@@H](n2ccc3c(N[C@H]4CCc5ccccc54)ncnc32)C[C@@H]1O [MLN4924] + O=C(CCCCCCC(=O)Nc1ccccc1)NO [Vorinostat] (partner 1 µM)
Summary of the method: as §1

MLN4924 + Pictilisib = compound: NS(=O)(=O)OC[C@@H]1C[C@@H](n2ccc3c(N[C@H]4CCc5ccccc54)ncnc32)C[C@@H]1O [MLN4924] + CS(=O)(=O)N1CCN(Cc2cc3nc(-c4cccc5[nH]ncc45)nc(N4CCOCC4)c3s2)CC1 [Pictilisib] (partner 1 µM)
Summary of the method: as §1

| Cell Line | relative viability (GSK126 + Vorinostat; first compound 0.08 µM) | relative viability (GSK126 + Vorinostat; first compound 0.253 µM) | relative viability (GSK126 + Vorinostat; first compound 0.8 µM) | relative viability (GSK126 + Vorinostat; first compound 2.53 µM) | relative viability (GSK126 + Vorinostat; first compound 8 µM) | relative viability (Carboplatin + Luminespib; first compound 0.08 µM) | relative viability (Carboplatin + Luminespib; first compound 0.253 µM) | relative viability (Carboplatin + Luminespib; first compound 0.8 µM) | relative viability (Carboplatin + Luminespib; first compound 2.53 µM) | relative viability (Carboplatin + Luminespib; first compound 8 µM) | relative viability (MLN4924 + Vorinostat; first compound 0.04 µM) | relative viability (MLN4924 + Vorinostat; first compound 0.1265 µM) | relative viability (MLN4924 + Vorinostat; first compound 0.4 µM) | relative viability (MLN4924 + Vorinostat; first compound 1.265 µM) | relative viability (MLN4924 + Vorinostat; first compound 4 µM) | relative viability (MLN4924 + Pictilisib; first compound 0.04 µM) | relative viability (MLN4924 + Pictilisib; first compound 0.1265 µM) | relative viability (MLN4924 + Pictilisib; first compound 0.4 µM) | relative viability (MLN4924 + Pictilisib; first compound 1.265 µM) | relative viability (MLN4924 + Pictilisib; first compound 4 µM) |
| --- | --- | --- | --- | --- | --- | --- | --- | --- | --- | --- | --- | --- | --- | --- | --- | --- | --- | --- | --- | --- |
| NCI-H1651 | 0.614 | 0.548 | 0.545 | 0.6 | 0.55 | 0.829 | 0.782 | 0.627 | 0.424 | 0.229 | 0.585 | 0.613 | 0.638 | 0.474 | 0.239 | 0.706 | 0.514 | 0.45 | 0.0787 | 0.115 |
| NCI-H1666 | 1.15 | 1 | 0.912 | 0.978 | 1.11 | 1.02 | 1.02 | 0.814 | 0.824 | 0.702 | 0.697 | 0.623 | 0.653 | 0.443 | 0.444 | 0.404 | 0.478 | 0.247 | 0.159 | 0.156 |
| NCI-H1734 | 0.906 | 0.816 | 0.804 | 0.766 | 0.769 | 0.21 | 0.236 | 0.193 | 0.188 | 0.174 | 0.792 | 0.565 | 0.208 | 0.132 | 0.113 | 0.568 | 0.743 | 0.29 | 0.13 | 0.154 |
| NCI-H1755 | 0.8 | 0.719 | 0.74 | 0.794 | 0.58 | 0.419 | 0.7 | 0.41 | 0.595 | 0.366 | 0.711 | 0.494 | 0.466 | 0.338 | 0.261 | 0.221 | 0.358 | 0.287 | 0.134 | 0.139 |
| NCI-H1793 | 0.841 | 0.703 | 0.717 | 0.825 | 0.671 | 0.153 | 0.172 | 0.187 | 0.185 | 0.17 | 0.665 | 0.662 | 0.886 | 0.328 | 0.205 | 0.322 | 0.284 | 0.273 | 0.245 | 0.121 |
| NCI-H1915 | 0.602 | 0.474 | 0.542 | 0.5 | 0.54 | 0.867 | 0.876 | 0.631 | 0.613 | 0.328 | 0.52 | 0.503 | 0.339 | 0.149 | 0.143 | 0.773 | 0.81 | 0.59 | 0.215 | 0.201 |
| NCI-H1944 | 0.656 | 0.524 | 0.601 | 0.566 | 0.594 | 0.881 | 0.661 | 0.661 | 0.452 | 0.389 | 0.543 | 0.539 | 0.613 | 0.203 | 0.158 | 0.405 | 0.38 | 0.376 | 0.182 | 0.178 |
| NCI-H1975 | 0.708 | 0.676 | 0.741 | 0.645 | 0.67 | 0.227 | 0.227 | 0.17 | 0.18 | 0.113 | 0.706 | 0.704 | 0.993 | 0.559 | 0.248 | 0.534 | 0.699 | 0.314 | 0.167 | 0.156 |
| NCI-H1993 | 0.921 | 0.779 | 0.79 | 1.02 | 1.1 | 1.13 | 0.812 | 0.818 | 0.884 | 0.698 | 0.645 | 0.26 | 0.29 | 0.309 | 0.314 | 0.701 | 0.681 | 0.7 | 0.647 | 0.643 |
| NCI-H2009 | 0.822 | 0.679 | 0.714 | 0.672 | 0.771 | 1.06 | 1.05 | 0.986 | 0.935 | 0.581 | 0.584 | 0.345 | 0.214 | 0.106 | 0.103 | 0.456 | 0.159 | 0.236 | 0.0505 | 0.0867 |
| NCI-H2023 | 0.962 | 0.804 | 0.533 | 0.709 | 0.712 | 0.774 | 0.715 | 0.668 | 0.281 | 0.172 | 0.548 | 0.457 | 0.166 | 0.0535 | 0.0695 | 0.315 | 0.145 | 0.101 | 0.0651 | 0.0705 |
| NCI-H2085 | 0.851 | 0.813 | 0.804 | 0.841 | 0.948 | 0.454 | 0.419 | 0.494 | 0.488 | 0.377 | 0.769 | 0.829 | 0.837 | 0.635 | 0.45 | 0.479 | 0.719 | 0.594 | 0.457 | 0.42 |
| NCI-H2087 | 0.847 | 0.523 | 0.652 | 0.652 | 1.15 | 0.158 | 0.168 | 0.121 | 0.138 | 0.165 | 0.784 | 0.43 | 0.135 | 0.0537 | 0.125 | 0.972 | 0.75 | 0.342 | 0.118 | 0.133 |
| NCI-H2126 | 0.867 | 0.789 | 0.829 | 0.805 | 0.783 | 0.862 | 1.07 | 0.992 | 0.931 | 0.695 | 0.814 | 0.869 | 0.555 | 0.237 | 0.267 | 0.497 | 0.457 | 0.315 | 0.267 | 0.264 |
| NCI-H2170 | 0.914 | 1.01 | 0.748 | 0.799 | 0.772 | 0.911 | 0.783 | 0.47 | 0.351 | 0.283 | 0.774 | 0.364 | 0.326 | 0.135 | 0.13 | 0.36 | 0.37 | 0.217 | 0.135 | 0.171 |
| NCI-H2228 | 0.343 | 0.725 | 0.644 | 0.616 | 0.923 | 0.179 | 0.136 | 0.115 | 0.158 | 0.132 | 0.73 | 0.601 | 0.581 | 0.13 | 0.0923 | – | 0.504 | 0.101 | 0.111 | 0.196 |
